The target in series [1] is p38 MAPK (Homo sapiens, UniProt Q16539). The series is described as follows: Inhibition of MEF2A phosphorylation by p38 MAPK in vitro. The following applies: MEF2A (10 nM) phosphorylation by active recombinant p38 (1 nM), 5 minutes. Format: biochemical. As for the experimental part: This assay was performed to quantify the effect of the compounds of the invention on MEF2-A phosphorylation by p38 MAPK in vitro.
To that end, briefly, active recombinant p38 (1 nM) and MEF2A (10 nM) were incubated with different concentrations of Compound 1 in a kinase buffer for 5 minutes. The proteins were resolved using SDS-PAGE and the activity of p38 was measured as phosphorylated MEF2A using anti-P-MEF2A (T312), a specific antibody. The mean of the results is graphically depicted as a percentage with respect to the controls (DMSO) of two independent experiments conducted in duplicate. For comparative purposes, Compound 5 at a concentration of 10 μM was used.
Finally, the in vitro mean inhibitory concentration (IC50) of this reaction for each assayed compound was determined as the measurement of the efficacy of a compound for inhibiting this biochemical function using a sufficient range of concentrations of each of these compounds (data not shown).

Series [2] deals with LysM-GRK2^f/+ mice. The experiment in a line: Carrageenan-induced hyperalgesia in LysM-GRK2f/+ mice, intrathecal injection. It is filed as in vivo. An excerpt:
To perform this assay, a previously described protocol was followed [Willemen H L, et al., Microglial/macrophage GRK2 determines duration of peripheral IL-1beta-induced hyperalgesia: contribution of spinal cord CX3CR1, p38 and IL-1 signaling. Pain. 2010 September; 150(3):550-60; and Eijkelkamp N, et al., (http://www.ncbi.nlm.nih.gov/pubmed/20147541; J. Neurosci. 2010 Feb. 10; 30(6):2138-49). Briefly, eight female LysM-GRK2^f/+ mice (2 mice per group, 4 paws for each condition) were subjected to an intraplantar injection of carrageenan (Sigma-Aldrich, […] of a 1% solution in saline) for inducing inflammatory-type hyperalgesia in the extremities. Seven (7) days after injecting carrageenan, the paw withdrawal latency time when the paw is in contact with heat was determined as an indication of inflammatory-type pain at time 0 (T=0). The carrier (20% DMSO) or Compound 1 at different concentrations (0.15, 0.5 and 1.5 μg in 5 μL of 20% DMSO) was then intrathecally injected.
The paw withdrawal latency periods were then measured at different times (0.5, 1, 2, 4, 6, 8, 10, 24, 48 and 96 hours after injecting the compound).
To evaluate the effect of Compound 5 on hyperalgesia induced in mice, a protocol similar to that described for Compound 1 in Example 9A was followed, but in this protocol, the known p38 MAPK inhibitor SB239063 (5 μg in 5 μL of 20% DMSO), the carrier (20% DMSO), or Compound 5 (4 μg in 5 μL of 20% DMSO) was intrathecally injected 7 days after injecting the carrageenan.

The test system of series [3] is THP-1 monocytes. The series is described as follows: THP-1 monocyte survival (propidium iodide, FACS). Format: cell-based, human. Particulars: dose causing the death of 50% of the cells; THP-1, propidium iodide FACS. As for the experimental part: (§1) This assay was performed to analyze the effect of the compounds of the invention on tumor necrosis factor alpha (TNF-α) secretion in response to bacterial lipopolysaccharide (LPS) in human monocytes (THP-1) and on the survival of said THP-1 monocytes in the presence of said compounds.
(§2) Briefly, cells from human monocytic cell line THP-1 (ATCC) at a density of about 10^6 cells/ml were stimulated with bacterial LPS (Sigma, Ref.# L2654) at a concentration of 1 mg/ml for 4 hours in the presence of the compounds of the invention dissolved in dimethyl sulfoxide (DMSO) at different concentrations (0.001, 0.01, 0.1, 1, 10 and 100 μM). The amount of TNF-α secreted into the medium in response to LPS was quantified by means of an ELISA assay (BioTrak, Ref.# RPN2758, GE-Amersham) following the manufacturer's instructions. Cell viability was quantified by means of flow cytometry FACS (FACScalibur, Becton Dickinson) after staining the treated cells with propidium iodide (1 mg/l) and quantifying the amount of positive cells for this stain (Software Cell Quest Pro).

The test system of series [4] is wild-type mice of strain C54BL/6. The experiment in a line: Hyperalgesia induced by high doses of carrageenan in wild-type mice, intrathecal injection. It is filed as in vivo. The following applies: for analgesic effect: FIG. 11A. As for the experimental part:
The administration of high doses of carrageenan is known to induce hyperalgesia and prolonged inflammation in wild-type mice. Briefly, 16 female wild-type mice of strain C54BL/6 (4 mice per group, 8 paws for each condition) were subjected to intraplantar injection of carrageenan (Sigma-Aldrich, 20 μL of a 2% solution % in saline) for inducing inflammatory-type hyperalgesia in the extremities. Six (6) days after injecting carrageenan, the paw withdrawal latency time when the paw is in contact with heat was determined as an indication of inflammatory-type pain at time 0 (T=0). The known p38 MAPK inhibitor SB239063 [trans-4-[4-(4-fluorophenyl)-5-(2-methoxy-4-pyrimidinyl)-1H-imidazol-1-yl]cyclohexanol] (5 μg in 5 μL of 20% DMSO), the carrier (20% DMSO), or Compound 1 at different concentrations (0.5, 1.0 and 1.5 μg in 5 μL of 20% DMSO) was then intrathecally injected.

The subject of series [5] is peritoneal macrophages of WT and GRK2^+/− mice. The experiment in a line: LPS-induced TNF-α secretion in peritoneal macrophages of WT and GRK2+/− mice. Format: cell-based. The following applies: all doses, FIG. 13. The method, then: GRK2^+/− peritoneal macrophages were subjected to treatment with LPS and TNF secretion was measured in the presence of increasing doses of Compound 1 as described above. The inhibition observed in GRK2^+/− macrophages was greater than that obtained for WT cells for all doses of Compound 1. The data are means of points in duplicate referring in each case to the secretion obtained in WT macrophages in the presence of Compound 1 at the same dose.
TNF-α secretion inhibition in peritoneal macrophages of GRK2^+/− mice with Compound 1 was studied. As can be observed in FIG. 13, the greater effect of Compound 1 on GRK2^+/− macrophages may indicate that cells with a lower GRK2 level, as occurs in immune system cells from patients with inflammatory pathologies (Vroon A, Kavelaars A, Limmroth V, Lombardi M S, Goebel M U, Van Dam A M, Caron M G, Schedlowski M, Heijnen C J., J Immunol., 2005, 174(7), 4400-6) are more sensitive to such inhibition.

Series [6] concerns TNF-α secretion in response to bacterial LPS in human monocytes (THP-1). The experiment in a line: TNF-α secretion in response to LPS in THP-1 monocytes (ELISA). Format: cell-based. As for the experimental part:
as §1, §2
These assays were performed to compare the effect of the compounds of the invention (compounds 1, 2 and 3) on tumor necrosis factor alpha (TNF-α) secretion in response to bacterial lipopolysaccharide (LPS) in human monocytes (THP-1) with respect to compounds that are structurally related but have a different substitution pattern in the phenyl ring. Conditions similar to those described in Example 7 were used.

Setting [7] is: doses of 1 and 1.5 μg intrathecal.

These results are taken from US9096554B2, “Drugs for inhibiting p38 and uses thereof” (UNIVERSIDAD AUTÓNOMA DE MADRID, priority 2011, dated 2015).

p38 MAPK, sequence (Q16539 whole entry): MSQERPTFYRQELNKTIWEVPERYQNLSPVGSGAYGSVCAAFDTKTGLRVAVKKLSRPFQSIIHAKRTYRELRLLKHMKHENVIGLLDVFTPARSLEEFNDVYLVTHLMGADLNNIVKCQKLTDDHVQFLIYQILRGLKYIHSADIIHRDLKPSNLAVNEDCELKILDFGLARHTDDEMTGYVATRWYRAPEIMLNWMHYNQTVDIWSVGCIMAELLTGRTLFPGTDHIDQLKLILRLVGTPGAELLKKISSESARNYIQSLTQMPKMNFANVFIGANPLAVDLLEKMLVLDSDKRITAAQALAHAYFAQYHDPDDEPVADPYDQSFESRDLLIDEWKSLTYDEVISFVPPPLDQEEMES

Consider `Cc1ccc(Cl)cc1Nc1ccc([N+](=O)[O-])c2nonc12` [Compound 1, (5-chloro-2-methyl-phenyl)-(7-nitro-benzo[1,2,5]oxadiazol-4-yl)-amine], for which the 50% inhibitory concentration (IC50) in series [1] is 6.5 µM; in series [6] (Homo sapiens, Table 2, THP-1, LPS, TNF-α ELISA) it was 1800 ± 6 nM. In addition, the long-term analgesic effect result in series [2] (dose of 0.3 μg intrathecal, FIG. 9B) was “did not provide any long-term analgesic effect”. Also, the “time the reduction of hyperalgesia was maintained after administering” value in series [2] (doses of 0.5 and 1.5 μg intrathecal) is at least 96 h. The “hyperalgesia (paw withdrawal latency to heat)” value in series [2] (doses of 0.5 and 1.5 μg intrathecal, 7 days after carrageenan, FIG. 9A) was “almost complete reduction of hyperalgesia”. The compound also showed a lowest effective dose in series [2] (intrathecal, FIG. 9B) of 0.5 µg. Also, the “TD50 (μM)” value in series [3] was “≈200 μM (n = 2)”. Moreover, the analgesic effect entry in series [4] (dose of 0.5 μg intrathecal, 6 days after carrageenan) is listed as “temporary effect”; in series [4] (setting [7]), “long-term analgesic effect”. Also, in series [4] (setting [7]), the “duration of analgesic effect” value was “at least 5 days”. In addition, the “inhibition of TNF secretion in GRK2+/− macrophages compared with WT cells” value in series [5] is reported as “greater”. Also, the “activity in TNF-α secretion inhibition compared with comparative Compounds 10-14” value in series [6] (human monocytes, FIG. 8) is on record as “greater activity”.
